“And” between values parts separate entries of the source, which are not always exact repeats. Equal entries are not always repeated.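 Compound exposure: 48 hours, 5 concentrations, 96-well plates. GI50 = concentration required for 50% inhibition of growth. TGI: total growth inhibition.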
Assays:
Test in all cases: NCI tumour cell line growth inhibition, 48 h
MALME-3M melanoma = system: MALME-3M melanoma
RPMI-8226 leukemia = system: RPMI-8226 leukemia
OVCAR-8 ovarian = system: OVCAR-8 ovarian
SF-268 CNS = system: SF-268 CNS
SNB-75 CNS = system: SNB-75 CNS
SW-620 colon = system: SW-620 colon
DU-145 prostate = system: DU-145 prostate
HT29 colon = system: HT29 colon
NCI-H522 lung = system: NCI-H522 lung
ACHN renal = system: ACHN renal

## O=[N+]([O-])c1cccc(-c2nc(-c3ccc(Cl)cc3Cl)cn2-c2ccccc2)c1
MALME-3M melanoma
  GI50: 0.704 µM
  TGI: 2.11 µM
RPMI-8226 leukemia
  GI50: 0.00546 µM
  TGI: 1.79 µM
OVCAR-8 ovarian
  GI50: 0.947 µM
  TGI: 2.64 µM
SF-268 CNS
  GI50: 1.14 µM
  TGI: 5.5 µM
SNB-75 CNS
  GI50: 0.509 µM
  TGI: 1.34 µM
SW-620 colon
  GI50: 0.617 µM
  TGI: 1.22 µM
DU-145 prostate
  GI50: 0.574 µM
  TGI: 1.19 µM
HT29 colon
  GI50: 1.25 µM
  TGI: 5.42 µM
NCI-H522 lung
  GI50: 3.25 µM
  TGI: > 20.2 µM
ACHN renal
  GI50: 1.3 µM
  TGI: 5.42 µM

## O=C(O)C1CC=CCC1C(=O)Nc1cccc(O)c1 (stereo unspecified)
MALME-3M melanoma
  TGI: > 100 µM
RPMI-8226 leukemia
  TGI: > 100 µM
OVCAR-8 ovarian
  TGI: > 100 µM
SF-268 CNS
  TGI: > 100 µM
SNB-75 CNS
  TGI: > 100 µM
SW-620 colon
  TGI: > 100 µM
DU-145 prostate
  TGI: > 100 µM
HT29 colon
  TGI: > 100 µM
NCI-H522 lung
  TGI: > 100 µM
ACHN renal
  TGI: > 100 µM

## O=C(O)c1cc2ccccc2c2c3c(ccc12)OCO3
MALME-3M melanoma
  GI50: 140 µM
  TGI: 361 µM
RPMI-8226 leukemia
  GI50: 139 µM
  TGI: 738 µM
OVCAR-8 ovarian
  GI50: 186 µM
  TGI: 717 µM
SF-268 CNS
  GI50: 188 µM
  TGI: 580 µM
SNB-75 CNS
  GI50: 77.8 µM
  TGI: 265 µM
SW-620 colon
  GI50: 245 µM
  TGI: > 1000 µM
DU-145 prostate
  GI50: 303 µM
  TGI: > 1000 µM
HT29 colon
  GI50: 281 µM
  TGI: 791 µM
ACHN renal
  GI50: 221 µM
  TGI: > 1000 µM

## CC(C)c1ccc(C2NC(=S)NC3=C2c2ccccc2C3=O)cc1 (stereo unspecified)
MALME-3M melanoma
  TGI: > 62.9 µM
RPMI-8226 leukemia
  TGI: > 62.4 µM
OVCAR-8 ovarian
  TGI: > 62.1 µM
SF-268 CNS
  TGI: > 52.4 µM
SNB-75 CNS
  TGI: 36.7 µM
SW-620 colon
  TGI: > 78.2 µM
DU-145 prostate
  TGI: 31.7 µM
HT29 colon
  TGI: > 59 µM
NCI-H522 lung
  TGI: 41.9 µM
ACHN renal
  TGI: > 55.9 µM

## O=C1/C=C/[C@@H](O)[C@@H]2C[C@@H](O)C[C@H]2/C=C/CCC[C@H](CCc2ccc3ncccc3c2)O1
MALME-3M melanoma
  GI50: 0.208 µM
  TGI: 0.678 µM
RPMI-8226 leukemia
  GI50: 0.243 µM
  TGI: 5.89 µM
OVCAR-8 ovarian
  GI50: 0.275 µM
  TGI: > 47 µM
SF-268 CNS
  GI50: 0.322 µM
  TGI: > 100 µM
SNB-75 CNS
  GI50: 0.101 µM
  TGI: > 29.8 µM
SW-620 colon
  GI50: 0.265 µM
  TGI: 0.768 µM
DU-145 prostate
  GI50: 0.564 µM
  TGI: > 100 µM
HT29 colon
  GI50: 0.0905 µM
  TGI: 0.555 µM
NCI-H522 lung
  GI50: 0.212 µM
  TGI: 0.523 µM
ACHN renal
  GI50: 0.388 µM
  TGI: > 29.7 µM

## COCCOCCOCc1n(Cc2ccc3ccccc3c2)c2ccccc2[n+]1Cc1ccc2ccccc2c1
MALME-3M melanoma
  GI50: 0.351 µM
  TGI: 1.38 µM
RPMI-8226 leukemia
  GI50: 0.117 µM
  TGI: 1.15 µM
OVCAR-8 ovarian
  GI50: 0.421 µM
  TGI: 1.74 µM
SF-268 CNS
  GI50: 0.442 µM
  TGI: 1.68 µM
SNB-75 CNS
  GI50: 0.236 µM
  TGI: 1.31 µM
SW-620 colon
  GI50: 0.624 µM
  TGI: 2.2 µM
DU-145 prostate
  GI50: 0.766 µM
  TGI: 2.14 µM
HT29 colon
  GI50: 0.321 µM
  TGI: 1.34 µM
NCI-H522 lung
  GI50: 0.303 µM
  TGI: 1.3 µM
ACHN renal
  GI50: 2.16 µM
  TGI: 5.37 µM

## C/C=C/C/C=C/[C@H](C)C[C@H](O)[C@@H]1C[C@@H]2O[C@H]2/C=C/[C@@H]2OC(C)(C)O[C@H]2/C=C/C[C@H](C)CC(=O)O1
RPMI-8226 leukemia
  GI50: 3.16 µM
  TGI: 37 µM
OVCAR-8 ovarian
  GI50: 3.7 µM
  TGI: > 100 µM
SF-268 CNS
  GI50: 10.4 µM
  TGI: > 100 µM
SNB-75 CNS
  GI50: 24.6 µM
  TGI: > 100 µM
SW-620 colon
  GI50: 22.7 µM
  TGI: > 100 µM
DU-145 prostate
  GI50: 12.3 µM
  TGI: > 100 µM
HT29 colon
  GI50: 12 µM
  TGI: > 100 µM
NCI-H522 lung
  GI50: 3.6 µM
  TGI: 31.9 µM
ACHN renal
  GI50: 6.05 µM
  TGI: > 100 µM

## COc1cc(Cl)cc(-c2nn(-c3cccc(NC(=O)Nc4cccc(C(F)(F)F)c4)c3)cc2-c2ccncc2)c1
MALME-3M melanoma
  GI50: 1.79 µM
  TGI: 5.91 µM
RPMI-8226 leukemia
  GI50: 0.43 µM
  TGI: 2.3 µM
OVCAR-8 ovarian
  GI50: 1.12 µM
  TGI: 4.88 µM
SF-268 CNS
  GI50: 2.56 µM
  TGI: 17.1 µM
SNB-75 CNS
  GI50: 1.78 µM
  TGI: 13.9 µM
SW-620 colon
  GI50: 2.3 µM
  TGI: 26.8 µM
DU-145 prostate
  GI50: 2.61 µM
  TGI: > 100 µM
HT29 colon
  GI50: 1.51 µM
  TGI: 6.24 µM
NCI-H522 lung
  GI50: 0.455 µM
  TGI: 2.51 µM
ACHN renal
  GI50: 1.72 µM
  TGI: 16.2 µM

## CO[C@@H]1CCN(c2nccc(Nc3cc4c(C(C)C)ccc(N5CC(CS(C)(=O)=O)[C@H]5C)c4cn3)n2)C[C@@H]1F (stereo partly specified)
MALME-3M melanoma
  GI50: 3.76 µM
  TGI: 15.6 µM
RPMI-8226 leukemia
  GI50: 2.14 µM
  TGI: 7.33 µM
OVCAR-8 ovarian
  GI50: 2.83 µM
  TGI: > 100 µM
SF-268 CNS
  GI50: 3.98 µM
  TGI: > 100 µM
SNB-75 CNS
  GI50: 5.85 µM
  TGI: > 100 µM
SW-620 colon
  GI50: 5.13 µM
  TGI: > 100 µM
DU-145 prostate
  GI50: 2.45 µM
  TGI: 45.1 µM
HT29 colon
  GI50: 3.1 µM
  TGI: 12.1 µM
NCI-H522 lung
  GI50: 1.69 µM
  TGI: 8.25 µM
ACHN renal
  GI50: 1.33 µM
  TGI: 44.6 µM

## CC(C)(C)OC(=O)NCCCCn1c2c(c3ccccc3c1=O)C(=O)c1ccccc1-2
MALME-3M melanoma
  GI50: 27.1 µM
  TGI: 80.6 µM
RPMI-8226 leukemia
  GI50: 4.42 µM
  TGI: > 100 µM
OVCAR-8 ovarian
  GI50: 8.75 µM
  TGI: 30.3 µM
SF-268 CNS
  GI50: 20.9 µM
  TGI: > 100 µM
SNB-75 CNS
  GI50: 35.4 µM
  TGI: > 100 µM
SW-620 colon
  GI50: 25.3 µM
  TGI: > 100 µM
DU-145 prostate
  GI50: 9.59 µM
  TGI: > 100 µM
HT29 colon
  GI50: 32.4 µM
  TGI: > 100 µM
NCI-H522 lung
  GI50: 27 µM
  TGI: > 100 µM
ACHN renal
  GI50: 15.7 µM
  TGI: 50.2 µM

## Nc1c(C(=O)Nc2ccccn2)sc2nc3c(cc12)C(O)CCC3 (stereo unspecified)
MALME-3M melanoma
  GI50: 19.3 µM
  TGI: > 50 µM
RPMI-8226 leukemia
  GI50: 1.84 µM
  TGI: > 50 µM
OVCAR-8 ovarian
  GI50: 2.19 µM
  TGI: > 50 µM
SF-268 CNS
  GI50: 2.94 µM
  TGI: > 50 µM
SNB-75 CNS
  GI50: 1.66 µM
  TGI: > 50 µM
SW-620 colon
  GI50: 1.62 µM
  TGI: > 50 µM
DU-145 prostate
  GI50: 1.94 µM
  TGI: > 50 µM
HT29 colon
  GI50: 1.55 µM
  TGI: > 50 µM
NCI-H522 lung
  GI50: 0.815 µM
  TGI: 2.02 µM
ACHN renal
  GI50: 10.7 µM
  TGI: > 50 µM

## CCOC(=O)Nc1nc2ccccc2[nH]1
MALME-3M melanoma
  GI50: 5.18 µM
  TGI: > 100 µM
RPMI-8226 leukemia
  GI50: 4.13 µM and 2.26 µM
  TGI: > 100 µM
OVCAR-8 ovarian
  GI50: 7.6 µM and 7.04 µM
  TGI: > 100 µM
SF-268 CNS
  GI50: > 100 µM
  TGI: > 100 µM
SNB-75 CNS
  GI50: 3.01 µM and 2.61 µM
  TGI: > 100 µM
SW-620 colon
  GI50: 3.9 µM and 3.17 µM
  TGI: > 100 µM
DU-145 prostate
  GI50: 8.58 µM and 4.18 µM
  TGI: > 100 µM
HT29 colon
  GI50: 3.96 µM and 3.99 µM
  TGI: > 100 µM
NCI-H522 lung
  GI50: 3.78 µM and 4.99 µM
  TGI: > 79.3 µM
ACHN renal
  GI50: 6.56 µM
  TGI: > 100 µM

## COc1cccc(-c2nn(-c3ccccc3)cc2-c2ccnc(NCCCNC(=O)c3cccc(C(F)(F)F)c3)c2)c1
MALME-3M melanoma
  GI50: 2.66 µM
  TGI: 8.22 µM
RPMI-8226 leukemia
  GI50: 2.64 µM
  TGI: 11.5 µM
OVCAR-8 ovarian
  GI50: 4.67 µM
  TGI: 20.1 µM
SF-268 CNS
  GI50: 9.51 µM
  TGI: 87.8 µM
SNB-75 CNS
  GI50: 17 µM
  TGI: 57.8 µM
SW-620 colon
  GI50: 4.35 µM
  TGI: 31.5 µM
DU-145 prostate
  GI50: 8.72 µM
  TGI: 66.3 µM
HT29 colon
  GI50: 3.61 µM
  TGI: 13.6 µM
NCI-H522 lung
  GI50: 2.58 µM
  TGI: 12.2 µM
ACHN renal
  GI50: 4.08 µM
  TGI: 18.3 µM
